biological target: T1, HCV NS3-4A serine protease (full-length NS3-4A protein, genotype 1a, strain HCV-1) (Hepatitis C virus genotype 1a, UniProt P26664); test: HCV NS3-4A protease assay; assay type: biochemical; details: Protease IC50
T1 construct: using the full-length NS3-4A protein (genotype 1a, strain HCV-1)
Procedure: The inhibitory activity of certain compounds of Table A against HCV NS3-4A serine protease is determined in a homogenous assay using the full-length NS3-4A protein (genotype 1a, strain HCV-1) and a commercially available internally-quenched fluorogenic peptide substrate as described by Taliani, M., et al. 1996 Anal. Biochem. 240:60-67, which is incorporated by reference in its entirety.

T1 sequence (P26664 1658-1711): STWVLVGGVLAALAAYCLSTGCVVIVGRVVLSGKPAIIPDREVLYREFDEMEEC
T1 sequence (P26664 1027-1657): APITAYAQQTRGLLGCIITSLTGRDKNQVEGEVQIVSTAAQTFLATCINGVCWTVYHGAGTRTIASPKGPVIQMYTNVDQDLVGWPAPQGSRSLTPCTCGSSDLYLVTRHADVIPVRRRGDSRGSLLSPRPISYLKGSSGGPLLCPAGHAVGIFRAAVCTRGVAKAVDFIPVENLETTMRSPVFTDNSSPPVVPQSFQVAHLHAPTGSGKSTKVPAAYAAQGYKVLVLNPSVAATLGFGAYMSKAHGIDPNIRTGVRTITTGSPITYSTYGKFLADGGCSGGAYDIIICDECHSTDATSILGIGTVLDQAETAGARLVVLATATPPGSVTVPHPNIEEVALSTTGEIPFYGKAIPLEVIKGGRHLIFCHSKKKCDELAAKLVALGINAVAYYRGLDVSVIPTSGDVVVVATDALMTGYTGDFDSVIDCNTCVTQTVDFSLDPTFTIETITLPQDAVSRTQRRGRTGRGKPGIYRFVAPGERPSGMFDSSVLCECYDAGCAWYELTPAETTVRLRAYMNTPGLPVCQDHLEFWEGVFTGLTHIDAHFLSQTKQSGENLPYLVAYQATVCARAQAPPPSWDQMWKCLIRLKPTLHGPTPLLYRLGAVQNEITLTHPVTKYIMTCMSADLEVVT

Row | Compound | IC50
1 | C=C[C@@H]1C[C@]1(NC(=O)[C@@H]1C[C@@]2(CN1C(=O)[C@@H](NC(=O)[C@@H](NC(=O)[C@@H]1CCC(=O)N1)C1CCCCC1)C(C)(C)C)C(C)(C)C21CCC1)C(=O)NS(=O)(=O)C1CC1 [Compound 110, (5R,8S)-7-[(2S)-2-{[(2S)-2-cyclohexyl-2-({[(2S)-5-oxopyrrolidin-2-yl]carbonyl}amino)acetyl]amino}-3,3-dimethylbutanoyl]-N-{(1R,2S)-1-[(cyclopropylsulfonyl)carba-moyl]-2-vinylcyclopropyl}-10,10-dimethyl-7-azadispiro[3.0.4.1]decane-8-carboxamide] | 1.5 nM
2 | C=C[C@@H]1C[C@]1(NC(=O)[C@@H]1C[C@@]2(CN1C(=O)[C@@H](NC(=O)[C@@H](NC(=O)[C@H]1CCC(=O)N1)C1CCCCC1)C(C)(C)C)C(C)(C)C21CCC1)C(=O)NS(=O)(=O)C1CC1 [Compound 111, (5R,8S)-7-[(2S)-2-{[(2S)-2-cyclohexyl-2-({[(2R)-5-oxopyrrolidin-2-yl]carbonyl}amino)acetyl]amino}-3,3-dimethylbutanoyl]-N-{(1R,2S)-1-[(cyclopropylsulfonyl)carba-moyl]-2-vinylcyclopropyl}-10,10-dimethyl-7-azadispiro[3.0.4.1]decane-8-carboxamide] | 2 nM
3 | C=C[C@@H]1C[C@]1(NC(=O)[C@@H]1C[C@@]2(CN1C(=O)[C@@H](NC(=O)[C@@H](NC(=O)c1cocn1)C1CCCCC1)C(C)(C)C)C(C)(C)C21CCC1)C(=O)NS(=O)(=O)C1CC1 [Compound 112, (5R,8S)-7-[(2S)-2-({(2S)-2-cyclohexyl-2-[(1,3-oxazol-4-ylcarbonyl)amino]acetyl}amino)-3,3-dimethylbutanoyl]-N-{(1R,2S)-1-[(cyclopropylsulfonyl)carba-moyl]-2-vinylcyclopropyl}-10,10-dimethyl-7-azadispiro[3.0.4.1]decane-8-carboxamide] | 1.5 nM
4 | C=C[C@@H]1C[C@]1(NC(=O)[C@@H]1C[C@@]2(CN1C(=O)[C@@H](NC(=O)[C@@H](NC(=O)c1cnco1)C1CCCCC1)C(C)(C)C)C(C)(C)C21CCC1)C(=O)NS(=O)(=O)C1CC1 [Compound 113, (5R,8S)-7-[(2S)-2-({(2S)-2-cyclohexyl-2-[(1,3-oxazol-5-ylcarbonyl)amino]acetyl}amino)-3,3-dimethylbutanoyl]-N-{(1R,2S)-1-[(cyclopropylsulfonyl)carba-moyl]-2-vinylcyclopropyl}-10,10-dimethyl-7-azadispiro[3.0.4.1]decane-8-carboxamide] | 2.5 nM
5 | C=C[C@@H]1C[C@]1(NC(=O)[C@@H]1C[C@@]2(CN1C(=O)[C@@H](NC(=O)[C@@H](NC(=O)c1ccc[nH]1)C1CCCCC1)C(C)(C)C)C(C)(C)C21CCC1)C(=O)NS(=O)(=O)C1CC1 [Compound 114, (5R,8S)-7-[(2S)-2-({(2S)-2-cyclohexyl-2-[(1H-pyrrol-2-ylcarbonyl)amino]acetyl}amino)-3,3-dimethylbutanoyl]-N-{(1R,2S)-1-[(cyclopropylsulfonyl)carba-moyl]-2-vinylcyclopropyl}-10,10-dimethyl-7-azadispiro[3.0.4.1]decane-8-carboxamide] | 0.7 nM
6 | C=C[C@@H]1C[C@]1(NC(=O)[C@@H]1C[C@@]2(CN1C(=O)[C@@H](NC(=O)[C@@H](NC(=O)c1ccncn1)C1CCCCC1)C(C)(C)C)C(C)(C)C21CCC1)C(=O)NS(=O)(=O)C1CC1 [Compound 115, (5R,8S)-7-[(2S)-2-({(2S)-2-cyclohexyl-2-[(pyrimidin-4-ylcarbonyl)amino]acetyl}amino)-3,3-dimethylbutanoyl]-N-{(1R,2S)-1-[(cyclopropylsulfonyl)carba-moyl]-2-vinylcyclopropyl}-10,10-dimethyl-7-azadispiro[3.0.4.1]decane-8-carboxamide] | 0.6 nM
7 | C=C[C@@H]1C[C@]1(NC(=O)[C@@H]1C[C@@]2(CN1C(=O)[C@@H](NC(=O)[C@@H](NC(=O)c1cncnc1)C1CCCCC1)C(C)(C)C)C(C)(C)C21CCC1)C(=O)NS(=O)(=O)C1CC1 [Compound 116, (5R,8S)-7-[(2S)-2-({(2S)-2-cyclohexyl-2-[(pyrimidin-5-ylcarbonyl)amino]acetyl}amino)-3,3-dimethylbutanoyl]-N-{(1R,2S)-1-[(cyclopropylsulfonyl)carba-moyl]-2-vinylcyclopropyl}-10,10-dimethyl-7-azadispiro[3.0.4.1]decane-8-carboxamide] | 0.6 nM
8 | C=C[C@@H]1C[C@]1(NC(=O)[C@@H]1C[C@@]2(CN1C(=O)[C@@H](NC(=O)[C@@H](NC(=O)c1ncccn1)C1CCCCC1)C(C)(C)C)C(C)(C)C21CCC1)C(=O)NS(=O)(=O)C1CC1 [Compound 117, (5R,8S)-7-[(2S)-2-({(2S)-2-cyclohexyl-2-[(pyrimidin-2-ylcarbonyl)amino]acetyl}amino)-3,3-dimethylbutanoyl]-N-{(1R,2S)-1-[(cyclopropylsulfonyl)carba-moyl]-2-vinylcyclopropyl}-10,10-dimethyl-7-azadispiro[3.0.4.1]decane-8-carboxamide] | 8 nM
9 | C=C[C@@H]1C[C@]1(NC(=O)[C@@H]1C[C@@]2(CN1C(=O)[C@@H](NC(=O)[C@@H](NC(=O)c1[nH]c(C)c(C)c1C(C)=O)C1CCCCC1)C(C)(C)C)C(C)(C)C21CCC1)C(=O)NS(=O)(=O)C1CC1 [Compound 118, (5R,8S)-7-[(2S)-2-{[(2S)-2-{[(3-acetyl-4,5-dimethyl-1H-pyrrol-2-yl)carbonyl]amino}-2-cyclohexylacetyl]amino}-3,3-dimethylbutanoyl]-N-{(1R,2S)-1-[(cyclopropylsulfonyl)carba-moyl]-2-vinylcyclopropyl}-10,10-dimethyl-7-azadispiro[3.0.4.1]decane-8-carboxamide] | 1.4 nM
10 | C=C[C@@H]1C[C@]1(NC(=O)[C@@H]1C[C@@]2(CN1C(=O)[C@@H](NC(=O)[C@@H](NC(=O)C(C)(C)N1CCCCC1)C(C)(C)C)C(C)(C)C)C(C)(C)C21CCC1)C(=O)NS(=O)(=O)C1CC1 [Compound 119, (5R,8S)-N-{(1R,2S)-1-[(cyclopropylsulfonyl)carba-moyl]-2-vinylcyclopropyl}-7-[(2S)-2-({(2S)-3,3-dimethyl-2-[(2-methyl-2-piperidin-1-ylpropanoyl)amino]butanoyl}amino)-3,3-dimethylbutanoyl]-10,10-dimethyl-7-azadispiro[3.0.4.1]decane-8-carboxamide] | 3.5 nM
11 | C=C[C@@H]1C[C@]1(NC(=O)[C@@H]1C[C@@]2(CN1C(=O)[C@@H](NC(=O)[C@@H](NC(=O)c1nc3ccccc3[nH]1)C(C)(C)C)C(C)(C)C)C(C)(C)C21CCC1)C(=O)NS(=O)(=O)C1CC1 [Compound 120, (5R,8S)-7-[(2S)-2-({(2S)-2-[(1H-benzimidazol-2-ylcarbonyl)amino]-3,3-dimethylbutanoyl}amino)-3,3-dimethylbutanoyl]-N-{(1R,2S)-1-[(cyclopropylsulfonyl)carba-moyl]-2-vinylcyclopropyl}-10,10-dimethyl-7-azadispiro[3.0.4.1]decane-8-carboxamide] | 0.7 nM
12 | C=C[C@@H]1C[C@]1(NC(=O)[C@@H]1C[C@@]2(CN1C(=O)[C@@H](NC(=O)[C@@H](NC(=O)c1ccno1)C(C)(C)C)C(C)(C)C)C(C)(C)C21CCC1)C(=O)NS(=O)(=O)C1CC1 [Compound 121, (5R,8S)-N-{(1R,2S)-1-[(cyclopropylsulfonyl)carba-moyl]-2-vinylcyclopropyl}-7-[(2S)-2-({(2S)-2-[(isoxazol-5-ylcarbonyl)amino]-3,3-dimethylbutanoyl}amino)-3,3-dimethylbutanoyl]-10,10-dimethyl-7-azadispiro[3.0.4.1]decane-8-carboxamide] | 9 nM
13 | C=C[C@@H]1C[C@]1(NC(=O)[C@@H]1C[C@@]2(CN1C(=O)[C@@H](NC(=O)[C@@H](NC(=O)c1ncc[nH]1)C(C)(C)C)C(C)(C)C)C(C)(C)C21CCC1)C(=O)NS(=O)(=O)C1CC1 [Compound 122, (5R,8S)-N-{(1R,2S)-1-[(cyclopropylsulfonyl)carba-moyl]-2-vinylcyclopropyl}-7-[(2S)-2-({(2S)-2-[(1H-imidazol-2-ylcarbonyl)amino]-3,3-dimethylbutanoyl}amino)-3,3-dimethylbutanoyl]-10,10-dimethyl-7-azadispiro[3.0.4.1]decane-8-carboxamide] | 3 nM
14 | C=C[C@H]1C[C@@]1(NC(=O)C1C[C@@]2(CN1C(=O)[C@@H](NC(=O)[C@@H](NC(=O)C1CCN1C(C)(C)C)C(C)(C)C)C(C)(C)C)C(C)(C)C21CCC1)C(=O)NS(=O)(=O)C1CC1 (stereo partly drawn) [Compound 123, (5R)-7-[(2S)-2-{[(2S)-2-{[(1-tert-butylazetidin-2-yl)carbonyl]amino}-3,3-dimethylbutanoyl]amino}-3,3-dimethylbutanoyl]-N-{(1S,2R)-1-[(cyclopropylsulfonyl)carba-moyl]-2-vinylcyclopropyl}-10,10-dimethyl-7-azadispiro[3.0.4.1]decane-8-carboxamide] | 6 nM
15 | C=C[C@@H]1C[C@]1(NC(=O)[C@@H]1C[C@@]2(CN1C(=O)[C@@H](NC(=O)C(NC(=O)c1ccccc1Nc1ccccc1)C1CCCCC1)C(C)(C)C)C(C)(C)C21CCC1)C(=O)NS(=O)(=O)C1CC1 (stereo partly drawn) [Compound 124, (5R,8S)-7-[(2S)-2-({[(2-anilinobenzoyl)amino](cyclo-hexyl)acetyl}amino)-3,3-dimethylbutanoyl]-N-{(1R,2S)-1-[(cyclopropylsulfonyl)carba-moyl]-2-vinylcyclopropyl}-10,10-dimethyl-7-azadispiro[3.0.4.1]decane-8-carboxamide] | 30 nM
16 | C=C[C@@H]1C[C@]1(NC(=O)[C@@H]1C[C@@]2(CN1C(=O)[C@@H](NC(=O)C(NC(=O)c1cc3ccccc3[nH]1)C1CCCCC1)C(C)(C)C)C(C)(C)C21CCC1)C(=O)NS(=O)(=O)C1CC1 (stereo partly drawn) [Compound 125, (5R,8S)-7-[(2S)-2-({cyclohexyl[(1H-indol-2-ylcarbonyl)amino]acetyl}amino)-3,3-dimethylbutanoyl]-N-{(1R,2S)-1-[(cyclopropylsulfonyl)carba-moyl]-2-vinylcyclopropyl}-10,10-dimethyl-7-azadispiro[3.0.4.1]decane-8-carboxamide] | 1.5 nM

Source: patent publication US20110182850A1, “ORGANIC COMPOUNDS AND THEIR USES” (priority 2009, published 2011)
